Experimental data reported in ChEMBL document CHEMBL4043239, “Discovery and optimization of oxadiazole-based FLAP inhibitors” (Bioorg Med Chem Lett, 2017).
Converted amounts (≈) assume the structure as drawn.

How the values were obtained:
hERG (KCNH2) [1] = molecular target: T1, hERG (KCNH2) (Homo sapiens, UniProt Q12809); experiment: Inhibition of human ERG expressed in CHO cells at 30 uM at -70mV holding potential measured after 300 secs by IonWorks electrophysiology method relative to control; type: cell-based; conditions: CHO cells expressing human ERG
[2] = Aqueous equilibrium solubility in citric acid/disodium phosphate buffer at pH 6.8 at 1 uM after 24 hrs by HPLC method; type: physicochemical; conditions: for solubility: buffer, pH 6.8, 24 h, 1 µM
[3] = Aqueous kinetic solubility of the compound at pH 7.4; type: physicochemical; conditions: for Kinetic_solubility: buffer; for solubility kinetic: aqueous, read-out: Kinetic_solubility
[4] = Stability in human liver microsomes at 1 uM pretreated for 10 mins followed by NADPH addition after 60 mins by LC/MS analysis relative to hepatic blood flow; type: ADME, microsome; conditions: read-out: Stability
[5] = molecular target: T2, Arachidonate 5-lipoxygenase-activating protein (Homo sapiens, UniProt P20292); experiment: Displacement of [125I]-L-691831 from human FLAP expressed in Sf9 cell membranes after 2 hrs by Topcount method
T2 sequence (P20292 whole entry): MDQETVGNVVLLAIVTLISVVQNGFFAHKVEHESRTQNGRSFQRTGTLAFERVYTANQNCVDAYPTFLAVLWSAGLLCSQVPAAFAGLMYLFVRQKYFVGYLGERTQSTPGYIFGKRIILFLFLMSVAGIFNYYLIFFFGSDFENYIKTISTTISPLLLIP

[6] = molecular target: T2, Arachidonate 5-lipoxygenase-activating protein; experiment: Inhibition of FLAP in calcimycin-stimulated human whole blood assessed as reduction in LTB4 production pretreated for 15 mins followed by calcimycin addition after 30 mins by ELISA
hERG (KCNH2) [7] = molecular target: T1, hERG (KCNH2); experiment: Inhibition of human ERG expressed in CHO cells at 11 uM at -70mV holding potential measured after 300 secs by IonWorks electrophysiology method relative to control; type: cell-based; conditions: CHO cells expressing human ERG
[8] = molecular target: T3, Arachidonate 5-lipoxygenase-activating protein (Homo sapiens) (UniProt P20292); experiment: Ratio of IC50 for FLAP in calcimycin-stimulated human whole blood to IC50 for displacement of [125I]-L-691831 from human FLAP expressed in Sf9 cell membranes
T3 sequence (whole entry): T2 sequence (P20292 whole entry)

hERG (KCNH2) [9] = molecular target: T1, hERG (KCNH2); experiment: Inhibition of human ERG expressed in CHO cells at 14 uM at -70mV holding potential measured after 300 secs by IonWorks electrophysiology method relative to control; type: cell-based; conditions: CHO cells expressing human ERG
hERG (KCNH2) [10] = molecular target: T1, hERG (KCNH2); experiment: Inhibition of human ERG expressed in CHO cells at 17 uM at -70mV holding potential measured after 300 secs by IonWorks electrophysiology method relative to control; type: cell-based; conditions: CHO cells expressing human ERG
hERG (KCNH2) [11] = molecular target: T1, hERG (KCNH2); experiment: Inhibition of human ERG expressed in CHO cells at 33 uM at -70mV holding potential measured after 300 secs by IonWorks electrophysiology method relative to control; type: cell-based; conditions: CHO cells expressing human ERG

T1 sequence (Q12809 whole entry): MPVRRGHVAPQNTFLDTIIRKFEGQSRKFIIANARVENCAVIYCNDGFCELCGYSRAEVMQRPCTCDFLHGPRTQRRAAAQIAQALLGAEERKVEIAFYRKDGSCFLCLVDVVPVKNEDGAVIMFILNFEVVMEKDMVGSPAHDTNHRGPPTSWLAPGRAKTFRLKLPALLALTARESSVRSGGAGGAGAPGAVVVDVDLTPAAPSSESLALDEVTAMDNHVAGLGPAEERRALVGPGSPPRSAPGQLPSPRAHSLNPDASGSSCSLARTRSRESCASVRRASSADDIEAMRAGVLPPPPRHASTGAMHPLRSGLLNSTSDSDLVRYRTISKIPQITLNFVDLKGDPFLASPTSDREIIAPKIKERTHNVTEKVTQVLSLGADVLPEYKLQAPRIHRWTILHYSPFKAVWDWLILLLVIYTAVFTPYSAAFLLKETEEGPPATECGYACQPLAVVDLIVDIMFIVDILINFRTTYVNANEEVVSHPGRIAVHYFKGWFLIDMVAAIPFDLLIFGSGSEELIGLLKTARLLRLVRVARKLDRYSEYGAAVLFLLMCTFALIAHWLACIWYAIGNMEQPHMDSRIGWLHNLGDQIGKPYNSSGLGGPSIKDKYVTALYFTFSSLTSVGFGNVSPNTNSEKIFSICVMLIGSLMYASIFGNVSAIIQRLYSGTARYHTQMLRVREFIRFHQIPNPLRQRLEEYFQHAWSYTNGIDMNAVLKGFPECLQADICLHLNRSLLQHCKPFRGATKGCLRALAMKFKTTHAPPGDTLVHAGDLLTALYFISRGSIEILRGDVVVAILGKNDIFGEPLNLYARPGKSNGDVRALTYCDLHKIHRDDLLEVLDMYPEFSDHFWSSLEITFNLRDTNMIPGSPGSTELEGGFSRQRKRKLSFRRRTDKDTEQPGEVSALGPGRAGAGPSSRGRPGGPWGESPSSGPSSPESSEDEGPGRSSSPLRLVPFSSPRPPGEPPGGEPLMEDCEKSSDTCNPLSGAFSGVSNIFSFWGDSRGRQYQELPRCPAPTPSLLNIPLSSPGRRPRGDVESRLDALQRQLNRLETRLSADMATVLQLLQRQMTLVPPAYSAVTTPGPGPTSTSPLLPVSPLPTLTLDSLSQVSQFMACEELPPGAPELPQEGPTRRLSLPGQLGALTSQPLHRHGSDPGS

| Compound | hepatic extraction ratio at 1 h, 1 µM [4] | IC50 [5] | IC50 [6] | solubility kinetic [3] | other results |
| --- | --- | --- | --- | --- | --- |
| CN(C)C(=O)N1CCN(c2nc([C@@](C)(c3ccc(-c4cnc(N)nc4)cc3)C3CC3)no2)CC1 | 0.52 | 0.012 µM | 0.058 µM |  | inhibition at 5 min, 30 µM (hERG (KCNH2) [1]): 36%; solubility [2]: Soluble; Kinetic_solubility [3]: Soluble |
| CC(C)[C@](C)(c1ccc(-c2cnc(N)nc2)nc1)c1noc(-c2cnn(CC(=O)N(C)C)c2)n1 | < 0.3 | 0.054 µM | 0.197 µM |  | solubility [2]: Soluble; Kinetic_solubility [3]: Soluble |
| CC(C)(O)Cn1cc(-c2nc(C3(c4ccc(-c5cnc(N)nc5)cc4)CCC3)no2)cn1 |  |  |  | > 0.043 mg/mL |  |
| Cn1cc(-c2nc(C3(c4ccc(-c5cnc(N)nc5)cn4)CCC3)no2)cn1 |  |  | 0.787 µM | > 0.037 mg/mL |  |
| CCn1cc(-c2nc(C3(c4ccc(-c5cnc(N)nc5)nc4)CCC3)no2)cn1 |  |  | 0.192 µM | > 0.038 mg/mL |  |
| Nc1ncc(-c2ccc(C3(c4noc(-c5cnn(C6COC6)c5)n4)CCC3)cn2)cn1 | < 0.24 |  | 0.071 µM | 0.025 mg/mL (≈ 60 µM) | inhibition at 5 min, 11 µM (hERG (KCNH2) [7]): < 10% |
| CN(C(=O)Cn1cc(-c2nc(C3(c4ccc(-c5cnc(N)nc5)nc4)CCC3)no2)cn1)C(C)(C)C |  |  | 0.262 µM | 0.027 mg/mL (≈ 55.4 µM) |  |
| Cn1cc(-c2nc(C3(c4ccc(-c5cnc(N)nc5)cc4)CCC3)no2)cn1 |  |  |  | 0.014 mg/mL (≈ 37.5 µM) | inhibition at 5 min, 11 µM (hERG (KCNH2) [7]): 25% |
| Cc1cc(-c2nc(C3(c4ccc(-c5cnc(N)nc5)nc4)CCC3)no2)[nH]n1 |  |  | 0.164 µM | > 0.037 mg/mL |  |
| CN(C(=O)Cn1cc(-c2nc(C3(c4ccc(-c5cnc(N)nc5)cc4)CCC3)no2)cn1)C(C)(C)C |  |  |  | 0.002 mg/mL (≈ 4.11 µM) |  |
| Nc1ncc(-c2ccc(C3(c4noc(N5CCCC5)n4)CCC3)cc2)cn1 |  |  | 0.467 µM | 0.016 mg/mL (≈ 44.1 µM) | Ratio IC50 [8]: 56 |
| Nc1ncc(-c2ccc(C3(c4noc(N5CCNCC5)n4)CCC3)cc2)cn1 | 0.35 | 0.324 µM | 0.68 µM | > 0.037 mg/mL | Ratio IC50 [8]: 2 |
| Nc1ncc(-c2ccc(C3(c4noc(N)n4)CCC3)cc2)cn1 |  |  |  | 0.022 mg/mL (≈ 71.3 µM) |  |
| CC(C)OC1CCN(c2nc(C3(c4ccc(-c5cnc(N)nc5)cc4)CCC3)no2)CC1 | 0.37 | 0.048 µM | 0.174 µM | 0.016 mg/mL (≈ 36.8 µM) | inhibition at 5 min, 14 µM (hERG (KCNH2) [9]): 85% |
| Nc1ncc(-c2ccc(C3(c4noc(N5CCC(O)CC5)n4)CCC3)cc2)cn1 | < 0.24 |  | 0.118 µM | > 0.039 mg/mL | Ratio IC50 [8]: 7; inhibition at 5 min, 17 µM (hERG (KCNH2) [10]): 40% |
| Nc1ncc(-c2ccc(C3(c4noc(N5CCCCC5)n4)CCC3)cc2)cn1 |  |  | 0.387 µM | 0.0041 mg/mL (≈ 10.9 µM) | Ratio IC50 [8]: 59; inhibition at 5 min, 33 µM (hERG (KCNH2) [11]): 92% |
| CC(C)[C@](C)(c1ccc(-c2cnc(N)nc2)nc1)c1noc(-c2cnn(C)c2)n1 | < 0.3 | 0.016 µM | 0.033 µM |  | solubility thermodynamic at 24 h, 1 µM ([2]; citric acid/disodium phosphate buffer, pH 6.8): 0.004 mg/mL (≈ 10.2 µM); Kinetic_solubility [3]: Soluble |
| Nc1ncc(-c2ccc(C3(c4noc(-c5cnn(C6COC6)c5)n4)CCC3)cc2)cn1 |  |  |  | > 0.041 mg/mL | inhibition at 5 min, 11 µM (hERG (KCNH2) [7]): 43% |
| CN(C)C(=O)Cn1cc(-c2nc([C@@](C)(c3ccc(-c4cnc(N)nc4)nc3)C3CC3)no2)cn1 | 0.67 | 0.0029 µM | 0.048 µM |  | solubility [2]: Soluble; Kinetic_solubility [3]: Soluble |
| Cn1cc(-c2nc(C3(c4ccc(-c5cnc(N)nc5)nc4)CCC3)no2)cn1 | 0.19 |  | 0.27 µM | 0.024 mg/mL (≈ 64.1 µM) | inhibition at 5 min, 11 µM (hERG (KCNH2) [7]): 11% |
| Nc1ncc(-c2ccc(C3(c4noc(N5CCN(CC6CCCO6)CC5)n4)CCC3)cc2)cn1 (stereo not drawn) | 0.49 | 0.092 µM | 0.182 µM | 0.026 mg/mL (≈ 56.3 µM) | Ratio IC50 [8]: 2 |
| CC(C)(C)NC(=O)Cn1cc(-c2nc(C3(c4ccc(-c5cnc(N)nc5)nc4)CCC3)no2)cn1 |  |  | 0.195 µM | 0.026 mg/mL (≈ 54.9 µM) |  |
